Reference: patent US20250361230A1, “LATS Inhibitors and Uses Thereof” (The USA, as Represented by the Secretary, Dept. of Heath …, priority 2022, published 2025)

Tests used:
Type in all cases: biochemical
LATS1 = biological target: T1, LATS1 (Homo sapiens, UniProt O95835); assay: RBC HotSpot kinase assay (33P-ATP, P81 filter-binding), LATS1; conditions: Table 28, biochemical kinase assay; read-out: LATS1 IC50
T1 sequence (O95835 1-1130): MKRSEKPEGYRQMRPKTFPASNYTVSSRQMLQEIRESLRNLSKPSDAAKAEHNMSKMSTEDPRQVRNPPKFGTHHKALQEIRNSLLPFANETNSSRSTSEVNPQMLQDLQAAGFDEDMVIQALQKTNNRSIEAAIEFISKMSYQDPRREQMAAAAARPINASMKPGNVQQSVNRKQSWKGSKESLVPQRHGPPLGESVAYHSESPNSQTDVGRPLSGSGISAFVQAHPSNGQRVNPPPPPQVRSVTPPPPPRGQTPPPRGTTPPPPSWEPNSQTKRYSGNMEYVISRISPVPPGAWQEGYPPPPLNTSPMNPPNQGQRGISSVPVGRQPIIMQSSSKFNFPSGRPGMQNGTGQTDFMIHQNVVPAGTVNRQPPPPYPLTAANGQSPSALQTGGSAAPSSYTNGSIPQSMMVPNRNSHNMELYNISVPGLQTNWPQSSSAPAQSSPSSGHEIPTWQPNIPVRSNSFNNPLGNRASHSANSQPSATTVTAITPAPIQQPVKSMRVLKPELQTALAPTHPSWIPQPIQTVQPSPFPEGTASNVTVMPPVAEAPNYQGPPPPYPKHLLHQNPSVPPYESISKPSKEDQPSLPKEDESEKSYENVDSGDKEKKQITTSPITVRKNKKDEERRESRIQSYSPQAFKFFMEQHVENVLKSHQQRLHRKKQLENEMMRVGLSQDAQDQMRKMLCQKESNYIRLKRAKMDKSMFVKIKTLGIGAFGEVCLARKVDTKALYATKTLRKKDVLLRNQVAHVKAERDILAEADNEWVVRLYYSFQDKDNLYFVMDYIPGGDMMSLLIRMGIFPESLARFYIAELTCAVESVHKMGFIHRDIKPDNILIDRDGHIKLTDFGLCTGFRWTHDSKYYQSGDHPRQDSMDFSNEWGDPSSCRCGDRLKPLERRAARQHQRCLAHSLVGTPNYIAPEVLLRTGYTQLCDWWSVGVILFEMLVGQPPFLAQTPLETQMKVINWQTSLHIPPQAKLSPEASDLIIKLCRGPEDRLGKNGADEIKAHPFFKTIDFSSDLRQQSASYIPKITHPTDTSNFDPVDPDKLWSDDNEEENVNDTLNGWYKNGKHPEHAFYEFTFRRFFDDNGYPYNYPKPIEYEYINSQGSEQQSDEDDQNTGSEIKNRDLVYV
In short: (§1)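 Hepes pH 7.5/MgCl2/EGTA/Brij35/BSA/Na3VO4/DTT buffer, cofactors per kinase; cpd acoustically dispensed, 20 min preinc RT; start w/ 33P-ATP, 2 h RT; P81 filter readout; 10-pt singlet IC50.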

LATS2 = biological target: T2, LATS2 (Homo sapiens, UniProt Q9NRM7); assay: RBC HotSpot kinase assay (33P-ATP, P81 filter-binding), LATS2; conditions: Table 28, biochemical kinase assay; read-out: LATS2 IC50
T2 sequence (Q9NRM7 1-1088): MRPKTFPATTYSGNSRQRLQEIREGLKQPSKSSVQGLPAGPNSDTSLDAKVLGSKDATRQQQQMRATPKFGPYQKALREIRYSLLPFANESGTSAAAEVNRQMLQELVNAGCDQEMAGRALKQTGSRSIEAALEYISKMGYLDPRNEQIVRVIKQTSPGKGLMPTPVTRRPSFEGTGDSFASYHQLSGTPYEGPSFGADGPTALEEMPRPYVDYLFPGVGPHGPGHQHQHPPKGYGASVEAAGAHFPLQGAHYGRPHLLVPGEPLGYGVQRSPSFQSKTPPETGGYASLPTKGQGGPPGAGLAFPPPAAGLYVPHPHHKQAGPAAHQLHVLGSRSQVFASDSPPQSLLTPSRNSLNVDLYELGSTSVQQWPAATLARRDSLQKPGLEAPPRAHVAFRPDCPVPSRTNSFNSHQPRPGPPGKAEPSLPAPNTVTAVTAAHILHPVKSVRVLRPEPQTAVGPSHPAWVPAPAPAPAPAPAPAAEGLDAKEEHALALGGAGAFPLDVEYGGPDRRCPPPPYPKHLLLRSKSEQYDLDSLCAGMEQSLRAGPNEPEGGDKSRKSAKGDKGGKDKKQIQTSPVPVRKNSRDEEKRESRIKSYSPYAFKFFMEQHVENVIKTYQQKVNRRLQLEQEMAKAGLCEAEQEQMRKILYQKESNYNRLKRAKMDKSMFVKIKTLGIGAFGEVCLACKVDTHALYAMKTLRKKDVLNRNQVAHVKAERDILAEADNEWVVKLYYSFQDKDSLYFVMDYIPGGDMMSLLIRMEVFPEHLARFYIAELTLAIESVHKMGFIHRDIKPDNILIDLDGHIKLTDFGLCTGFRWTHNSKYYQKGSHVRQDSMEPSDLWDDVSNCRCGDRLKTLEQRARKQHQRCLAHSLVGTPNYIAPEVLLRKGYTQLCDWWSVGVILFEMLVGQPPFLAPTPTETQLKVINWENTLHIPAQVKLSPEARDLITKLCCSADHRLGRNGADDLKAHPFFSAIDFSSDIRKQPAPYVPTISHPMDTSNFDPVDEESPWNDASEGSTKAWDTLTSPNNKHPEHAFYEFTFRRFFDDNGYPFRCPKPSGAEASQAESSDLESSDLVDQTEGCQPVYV
In short: as §1

AKT = AKT (Homo sapiens, UniProt P31749); assay: RBC HotSpot kinase assay (33P-ATP, P81 filter-binding), AKT; conditions: Table 28, biochemical kinase assay; read-out: AKT IC50
Sequence of AKT (P31749 whole entry): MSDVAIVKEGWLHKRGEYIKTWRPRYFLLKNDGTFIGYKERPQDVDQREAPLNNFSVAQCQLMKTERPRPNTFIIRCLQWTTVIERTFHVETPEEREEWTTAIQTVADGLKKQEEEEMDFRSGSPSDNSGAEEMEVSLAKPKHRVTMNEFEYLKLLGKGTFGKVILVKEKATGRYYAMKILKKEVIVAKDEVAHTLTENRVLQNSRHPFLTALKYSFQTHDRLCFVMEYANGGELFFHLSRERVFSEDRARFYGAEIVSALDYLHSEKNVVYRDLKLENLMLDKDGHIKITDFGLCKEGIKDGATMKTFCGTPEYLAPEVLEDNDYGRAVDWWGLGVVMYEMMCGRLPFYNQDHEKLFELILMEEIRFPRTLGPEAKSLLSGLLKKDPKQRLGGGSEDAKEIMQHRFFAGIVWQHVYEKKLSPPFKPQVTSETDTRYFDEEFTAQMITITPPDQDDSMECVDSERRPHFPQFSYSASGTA
In short: as §1

Row | IC50 (LATS1) [nM] | IC50 (LATS2) [nM] | IC50 (AKT) [nM] | SMILES
1 | 11.3 | 3.7 | 939 | Cc1cc(-c2ccnc3[nH]cc(F)c23)cc(F)c1[C@@]1(O)[C@H](C)CN(C(=O)CN(C)C)C[C@@H]1C [Compound 71, 2-(dimethylamino)-1-((3S,4s,5R)-4-(2-fluoro-4-(3-fluoro-1H-pyrrolo[2,3-b]pyridin-4-yl)-6-methylphenyl)-4-hydroxy-3,5-dimethylpiperid-1-yl)ethan-1-one]
2 | 27.4 | 60 | > 10000 | C[C@@H]1CN(C(=O)C2CC(C)(C)C2)C[C@H](C)C1(O)c1c(F)cc(-c2ccnc3[nH]cc(F)c23)cc1F (stereo partly drawn) [Compound 72, ((3S,5R)-4-(2,6-difluoro-4-(3-fluoro-1H-pyrrolo[2,3-b]pyridin-4-yl)phenyl)-4-hydroxy-3,5-dimethylpiperidin-1-yl)(3,3-dimethylcyclobutyl) methanone]
3 | 14.7 | 32.7 | 6470 | Cc1cc(-c2ccnc3[nH]cc(F)c23)cc(F)c1C1(O)[C@H](C)CN(C(=O)C2CC(F)(F)C2)C[C@@H]1C (stereo partly drawn) [Compound 73, (3,3-difluorocyclobutyl) ((3S,5R)-4-(2-fluoro-4-(3-fluoro-1H-pyrrolo[2,3-b]pyridin-4-yl)-6-methylphenyl)-4-hydroxy-3,5-dimethylpiperidin-1-yl)methanone]
4 | 35.3 | 12.2 | > 10000 | C[C@@H]1CN(C(=O)C2CC(C(F)(F)F)C2)C[C@H](C)C1(O)c1c(F)cc(-c2ccnc3[nH]cc(F)c23)cc1F (stereo partly drawn) [Compound 74, ((3S,5R)-4-(2,6-difluoro-4-(3-fluoro-1H-pyrrolo[2,3-b]pyridin-4-yl)phenyl)-4-hydroxy-3,5-dimethylpiperidin-1-yl)(3-(trifluoromethyl)cyclobutyl)methanone]
5 | 19.9 | 5 | 140 | C[C@@H]1CN(C(=O)CN)C[C@H](C)[C@@]1(O)c1ccc(-c2ccnc3[nH]cc(F)c23)cc1Cl [Compound 75, 2-amino-1-((3R,4s,S5S)-4-(2-chloro-4-(3-fluoro-1H-pyrrolo[2,3-b]pyridin-4-yl)phenyl)-4-hydroxy-3,5-dimethylpiperid-1-yl)ethan-1-one]
6 | 29.8 | 18.9 | 1720 | Cc1nc(-c2ccnc3[nH]cc(F)c23)ccc1C1(O)[C@H](C)CN(C(=O)CN)C[C@@H]1C (stereo partly drawn) [Compound 76, 2-amino-1-((3S,5R)-4-(6-(3-fluoro-1H-pyrrolo[2,3-b]pyridin-4-yl)-2-methylpyridin-3-yl)-4-hydroxy-3,5-dimethylpiperidin-1-yl)ethan-1-one]
7 | 24.6 | 19.3 | 885 | C[C@@H]1CN(C(=O)C(C)(C)N)C[C@H](C)C1(O)c1c(F)cc(-c2ccnc3[nH]cc(F)c23)cc1F (stereo partly drawn) [Compound 77, 2-amino-1-((3S,5R)-4-(2,6-difluoro-4-(3-fluoro-1H-pyrrolo[2,3-b]pyridin-4-yl)phenyl)-4-hydroxy-3,5-dimethylpiperidin-1-yl)-2-methylpropan-1-one]
8 | 16.9 | 34 | 2430 | C[C@@H]1CN(C(=O)C2(N)CC2)C[C@H](C)C1(O)c1c(F)cc(-c2ccnc3[nH]cc(F)c23)cc1F (stereo partly drawn) [Compound 78, (1-aminocyclopropyl) ((3S,5R)-4-(2,6-difluoro-4-(3-fluoro-1H-pyrrolo[2,3-b]pyridin-4-yl)phenyl)-4-hydroxy-3,5-dimethylpiperidin-1-yl)methanone]
9 | 12.8 | 29.5 | 5140 | C[C@@H]1CN(C(=O)C2(N)CC(F)(F)C2)C[C@H](C)C1(O)c1c(F)cc(-c2ccnc3[nH]cc(F)c23)cc1F (stereo partly drawn) [Compound 79, (1-amino-3,3-difluorocyclobutyl) ((3S,5R)-4-(2,6-difluoro-4-(3-fluoro-1H-pyrrolo[2,3-b]pyridin-4-yl)phenyl)-4-hydroxy-3,5-dimethylpiperidin-1-yl)methanone]
10 | 12.3 | 12.8 | 700 | C[C@@H]1CN(C(=O)CN(C)C)C[C@H](C)C1(O)c1c(F)cc(-c2ccnc3[nH]cc(F)c23)cc1F (stereo partly drawn) [Compound 80, 1-((3S,5R)-4-(2,6-difluoro-4-(3-fluoro-1H-pyrrolo[2,3-b]pyridin-4-yl)phenyl)-4-hydroxy-3,5-dimethylpiperidin-1-yl)-2-(dimethylamino) ethan-1-one]
11 | 24.1 | 22.4 | 1020 | C[C@@H]1CN(C(=O)[C@@H]2COCCN2)C[C@H](C)C1(O)c1c(F)cc(-c2ccnc3[nH]cc(F)c23)cc1F (stereo partly drawn) [Compound 81, ((3S,5R)-4-(2,6-difluoro-4-(3-fluoro-1H-pyrrolo[2,3-b]pyridin-4-yl)phenyl)-4-hydroxy-3,5-dimethylpiperidin-1-yl)((S)-morpholin-3-yl)methanone]
12 | 14.5 | 14.2 | 506 | C[C@H](N)C(=O)N1C[C@@H](C)C(O)(c2c(F)cc(-c3ccnc4[nH]cc(F)c34)cc2F)[C@@H](C)C1 (stereo partly drawn) [Compound 82, (2S)-2-amino-1-((3S,5R)-4-(2,6-difluoro-4-(3-fluoro-1H-pyrrolo[2,3-b]pyridin-4-yl)phenyl)-4-hydroxy-3,5-dimethylpiperidin-1-yl)propan-1-one]
13 | 25 | 21.3 | 570 | CNCC(=O)N1C[C@@H](C)C(O)(c2c(F)cc(-c3ccnc4[nH]cc(F)c34)cc2F)[C@@H](C)C1 (stereo partly drawn) [Compound 83, 1-((3S,5R)-4-(2,6-difluoro-4-(3-fluoro-1H-pyrrolo[2,3-b]pyridin-4-yl)phenyl)-4-hydroxy-3,5-dimethylpiperidin-1-yl)-2-(methylamino) ethan-1-one]
14 | 21.6 | 10.3 | 1470 | C[C@@H]1CN(C(=O)[C@@H]2CCCN2)C[C@H](C)C1(O)c1c(F)cc(-c2ccnc3[nH]cc(F)c23)cc1F (stereo partly drawn) [Compound 84, 4-(4-((3S,5R)-1-(L-prolyl)-4-hydroxy-3,5-dimethylpiperidin-4-yl)-3,5-difluorophenyl)-3-fluoro-1H-pyrrolo[2,3-b]pyridine]
15 | 5.8 | 4.7 | 659 | C[C@@H]1CN(C(=O)[C@H]2CCCN2)C[C@H](C)C1(O)c1c(F)cc(-c2ccnc3[nH]cc(F)c23)cc1F (stereo partly drawn) [Compound 85, 4-(4-((3S,5R)-1-(D-prolyl)-4-hydroxy-3,5-dimethylpiperidin-4-yl)-3,5-difluorophenyl)-3-fluoro-1H-pyrrolo[2,3-b]pyridine]
